The structures appear in SMILES notation.

For one experiment, the system named is Entamoeba histolytica. The experiment is described as follows: MMV: Primary screening was performed with each compound at a 30 uM final concentration and in triplicate in sealed 96-well polystyrene microtiter plates. Parasite inocula (100 ul) comprising 20000 parasites/ml were added to each well and grown at 37 degrees C in a humidified atmosphere of 5% CO2 for 72 h. Positive controls consisted of metronidazole at 1 mg/ml. The growth of E. histolytica trophozoites in each well was determined microscopically by measuring the diameters of the confluent cells in drug-containing wells relative to those in the nega- tive-control wells. The experiment is classed as functional, organism-based.

A further experiment relates to Toxoplasma gondii. Briefly: MMV: A total of 100ul of inoculum was added to each well (parasite/cell ratio, ~10:1; final volume, 200 ul). Six hours after inoculation, nonadherent parasites were removed, and 100 ul of complete DMEM (1% penicillin-streptomycin, 3% FBS) supplemented with inhibitors at different concentrations (2-fold serial dilutions starting from 30 uM) was added to all except the negative-control wells. Positive controls, consisting of pyrimethamine (PYR) and sulfadiazine (SDZ) (20-mg/ml stocks in DMSO), were tested at a 2mg/ml final concentration. Each test was performed in triplicate. It is filed as functional, organism-based. The note with it: 6 h.

Usually IC50 stands for the concentration that gives 50% inhibition. As for `COc1ccc(-c2cc3c(nn2)-c2ccccc2C3=O)cc1`, the IC50 in the experiment with Entamoeba histolytica and in the experiment on Toxoplasma gondii was above 30 µM throughout.

As to `COc1ccc(C2c3ccc4ccccc4c3Oc3ncn(CCCN(C)C)c(=N)c32)cc1` (stereo not given), the IC50 in the experiment with Entamoeba histolytica and with Toxoplasma gondii was above 30 µM each time.

As to `Nc1nc(Nc2cccc(F)c2)nc2ccccc12`, the IC50 is above 30 µM in the experiment with Entamoeba histolytica and 29 µM with Toxoplasma gondii.

Take `COc1ccc(/C=C2/SC(=Nc3ccccc3)NC2=O)cc1`: the IC50 with Entamoeba histolytica and with Toxoplasma gondii was above 30 µM in each case.

With `c1ccc(/C2=N/c3ccccc3/N=C(/c3ccccc3)c3ccccc32)cc1`, the IC50 with Entamoeba histolytica and in the experiment on Toxoplasma gondii was above 30 µM in each case.

Consider `O=C(NC1CCN(Cc2ccccc2)CC1)c1cc2nc(-c3ccc(Cl)s3)cc(C(F)(F)F)n2n1`, for which the IC50 in the experiment with Entamoeba histolytica and in the experiment on Toxoplasma gondii was above 30 µM each time.

With `Cc1sc(NC(=O)c2ccccc2)c(C(c2cccs2)N2CCN(c3ccccc3)CC2)c1C` (stereo not given), the IC50 in the experiment on Entamoeba histolytica and in the experiment on Toxoplasma gondii was above 30 µM throughout.

In the case of `CCOC(=O)c1c(C)n(-c2ccccc2)c2ccc(OC(=O)c3cc(OC)c(OC)c(OC)c3)cc12`, the IC50 with Entamoeba histolytica and in the experiment with Toxoplasma gondii was above 30 µM in each case.

On to `N#Cc1nc(Cc2cccc3ccccc23)oc1N1CCN(C(c2ccccc2)c2ccccc2)CC1`, for which the IC50 in the experiment with Entamoeba histolytica and with Toxoplasma gondii was above 30 µM throughout.

Take `COc1ccc(C2c3ccc4ccccc4c3Oc3ncn(CCCn4ccnc4)c(=N)c32)cc1OC` (stereo not given): the IC50 in the experiment with Entamoeba histolytica and with Toxoplasma gondii was above 30 µM throughout.

On to `CN(N=O)C1=C(NC2CCCCC2)C(=O)c2ccccc2C1=O`, for which the IC50 with Entamoeba histolytica and in the experiment on Toxoplasma gondii was above 30 µM each time.

As for `COc1cccc(Nc2nc(N)c3ccccc3n2)c1`, the IC50 in the experiment on Entamoeba histolytica was above 30 µM; in the experiment on Toxoplasma gondii, 28.1 µM.

Turning to `Cc1ccc(C(=O)c2oc3ccc4c(C)cc(=O)oc4c3c2C)cc1`, the IC50 in the experiment on Entamoeba histolytica and with Toxoplasma gondii was above 30 µM throughout.

`COc1ccc(CN2CCCC(C(=O)c3ccc(C(F)(F)F)cc3)C2)c(O)c1` (stereo not given): the IC50 in the experiment with Entamoeba histolytica and with Toxoplasma gondii was above 30 µM throughout.

In the case of `CCCCCCc1cc2cc(-c3csc(C=Cc4ccccc4)n3)c(=O)oc2cc1O`, the IC50 in the experiment on Entamoeba histolytica and with Toxoplasma gondii was above 30 µM each time.

Regarding `Oc1ccc(-c2nc(-c3ccc4oc5ccc(-c6[nH]c(-c7ccc(O)cc7)nc6-c6ccccc6)cc5c4c3)c(-c3ccccc3)[nH]2)cc1`, the IC50 with Entamoeba histolytica and in the experiment on Toxoplasma gondii was above 30 µM each time.

For the compound `O=C(NC1CCCCC1)C(c1cccs1)N(CCc1ccccc1)C(=O)c1ccco1` (stereo not given), the IC50 with Entamoeba histolytica and in the experiment on Toxoplasma gondii was above 30 µM in each case.

`CC(Oc1ccc(NC(=O)c2cccs2)cc1)C(=O)c1ccc(Cl)cc1` (stereo not given): the IC50 was above 30 µM with Entamoeba histolytica and 10.5 µM in the experiment on Toxoplasma gondii.

Regarding `COc1ccc(CNC(=O)c2cc3c(=O)n4ccccc4nc3n(CCc3ccccc3)c2=N)cc1`, the IC50 in the experiment on Entamoeba histolytica and with Toxoplasma gondii was above 30 µM in each case.

Regarding `Brc1ccc(Nc2nc3ccccc3nc2Nc2ccc(Br)cc2)cc1`, the IC50 in the experiment with Entamoeba histolytica and with Toxoplasma gondii was above 30 µM each time.

Regarding `O=C(NC1CCN(Cc2ccccc2)CC1)c1cc(C(=O)NC2CCN(Cc3ccccc3)CC2)cc(C(=O)NC2CCN(Cc3ccccc3)CC2)c1`, the IC50 with Entamoeba histolytica and in the experiment with Toxoplasma gondii was above 30 µM in each case.

Consider `COc1ccc(-c2cn3c(C(=O)Nc4ccccc4Cl)c(-c4ccccc4)c4c3n2CCCC4)cc1`, for which the IC50 in the experiment on Entamoeba histolytica and with Toxoplasma gondii was above 30 µM throughout.

For the compound `Cn1c(=O)n(C)c2cc(CNCCNc3ccnc4cc(Cl)ccc34)ccc21`, the IC50 in the experiment on Entamoeba histolytica and in the experiment on Toxoplasma gondii was above 30 µM each time.

`Cc1cc(Nc2ccc(OCc3ccccc3)cc2)nc2cc(O)ccc12`: the IC50 in the experiment with Entamoeba histolytica and in the experiment on Toxoplasma gondii was above 30 µM throughout.

In the case of `CCN(CC)CCNc1ccnc2cc3ccccc3cc12`, the IC50 with Entamoeba histolytica and in the experiment with Toxoplasma gondii was above 30 µM in each case.

Consider `CCOc1ccc2nc(C)cc(Nc3ccc(N(C)C)cc3)c2c1`, for which the IC50 in the experiment on Entamoeba histolytica and with Toxoplasma gondii was above 30 µM in each case.

For the compound `N=c1c2ccccc2nnn1-c1cccc(C(F)(F)F)c1`, the IC50 with Entamoeba histolytica and in the experiment with Toxoplasma gondii was above 30 µM throughout.

With `COc1cc(-c2nc(-c3ccc(Sc4ccccc4)cc3)c(-c3ccccc3)[nH]2)cc(OC)c1O`, the figures for the half-inhibitory concentration (IC50) in the experiment with Entamoeba histolytica and in the experiment with Toxoplasma gondii were above 30 µM and 5.85 µM, respectively.

For `COc1ccc(C=C2SC(Nc3ccc(F)cc3)=NC2=O)c(OC)c1`, the IC50 in the experiment on Entamoeba histolytica and in the experiment with Toxoplasma gondii was above 30 µM in each case.

For the compound `COc1ccc(C2NCCc3c2[nH]c2ccccc32)cc1CN1CCN(c2ccc(F)cc2)CC1` (stereo not given), the IC50 in the experiment on Entamoeba histolytica and in the experiment with Toxoplasma gondii was above 30 µM each time.

With `O=C(Nc1ccc(-c2nc3cc(NC(=O)c4ccc(Cl)cc4)ccc3[nH]2)cc1)c1ccc(Cl)cc1`, the IC50 in the experiment on Entamoeba histolytica and in the experiment on Toxoplasma gondii was above 30 µM in each case.

As for `OC(Cn1nnc2ccccc21)Cn1c2ccc(Br)cc2c2cc(Br)ccc21` (stereo not given), the IC50 in the experiment on Entamoeba histolytica and with Toxoplasma gondii was above 30 µM each time.

In the case of `Cc1ccc(C)c(Cn2c(N3CCC(C(=O)NCc4cccs4)CC3)nc3ccccc32)c1`, the IC50 with Entamoeba histolytica and in the experiment with Toxoplasma gondii was above 30 µM throughout.

On to `Cc1ccccc1OCCSc1nc2ccc(NC(=O)c3cccs3)cc2s1`, for which the concentration for half-maximal inhibition (IC50) in the experiment on Entamoeba histolytica and in the experiment on Toxoplasma gondii was above 30 µM in each case.

Regarding `CCOC(=O)c1cnc2ccc(OC)cc2c1Nc1ccc(N2CCN(C)CC2)cc1`, the IC50 with Entamoeba histolytica and in the experiment on Toxoplasma gondii was above 30 µM in each case.

As to `COc1ccccc1C(=O)ON=C(N)Cc1cccc2ccccc12`, the 50% inhibitory concentration (IC50) with Entamoeba histolytica and with Toxoplasma gondii was above 30 µM throughout.

For `CCOc1cc2c(cc1OCC)C(c1cc(Cl)ccc1O)NCC2` (stereo not given), the IC50 with Entamoeba histolytica and in the experiment on Toxoplasma gondii was above 30 µM each time.

For `CCN(CC)CCCNc1ccnc2cc3ccccc3cc12`, the IC50 in the experiment on Entamoeba histolytica and with Toxoplasma gondii was above 30 µM in each case.

For the compound `CN1C=C(c2ccc3ccccc3n2)C(c2c[nH]c3ccccc23)c2ccccc21` (stereo not given), the IC50 with Entamoeba histolytica and with Toxoplasma gondii was above 30 µM throughout.

`O=C(Nc1ccc(-c2nc3cc4ccccc4cc3[nH]2)cc1)c1cccc(Br)c1`: the IC50 with Entamoeba histolytica and in the experiment with Toxoplasma gondii was above 30 µM throughout.

As to `Cc1ccc(-c2nc3ccccc3o2)cc1NCc1cc(Cc2ccccc2)ccc1O`, the IC50 in the experiment with Entamoeba histolytica and in the experiment with Toxoplasma gondii was above 30 µM each time.

Take `OC(CNC1CCCCC1)Cn1c2ccc(I)cc2c2cc(I)ccc21` (stereo not given): the IC50 in the experiment with Entamoeba histolytica and in the experiment on Toxoplasma gondii was above 30 µM throughout.

For `COc1ccc(C(O)(CCC(C)C)C(CN2CCOCC2)c2ccc(Cl)cc2)cc1` (stereo not given), the IC50 in the experiment with Entamoeba histolytica and with Toxoplasma gondii was above 30 µM throughout.

On to `CCCOCc1cc(CN2CCN(c3cccc(Cl)c3)CC2)c(O)c2ncccc12`, for which the IC50 in the experiment with Entamoeba histolytica and in the experiment with Toxoplasma gondii was above 30 µM each time.

Consider `O=C(Cc1ccccc1)NC(c1ccc(Cl)cc1)c1c(O)ccc2ccccc12` (stereo not given), for which the IC50 with Entamoeba histolytica and in the experiment on Toxoplasma gondii was above 30 µM throughout.

In the case of `c1ccc(CNc2nc(Nc3ccccc3)nc3ccccc23)cc1`, the IC50 in the experiment with Entamoeba histolytica and in the experiment on Toxoplasma gondii was above 30 µM each time.

As for `COc1ccc(C(=O)NC(c2ccccc2Cl)c2cc(Cl)c3cccnc3c2O)cc1` (stereo not given), the IC50 in the experiment with Entamoeba histolytica and in the experiment with Toxoplasma gondii was above 30 µM each time.

For the compound `Cc1cccc(N2C(=O)C3C(C2=O)C2(c4ccccc4)C(=O)C3(c3ccccc3)C(c3ccc4c(c3)OCO4)=C2c2ccc3c(c2)OCO3)c1` (stereo not given), the IC50 with Entamoeba histolytica and in the experiment on Toxoplasma gondii was above 30 µM throughout.

With `Oc1ccc(Br)cc1CN1CCN(Cc2ccc(Cl)cc2)CC1`, the IC50 with Entamoeba histolytica was above 30 µM; in the experiment with Toxoplasma gondii it was 14.5 µM.

With `Cc1ccc(F)cc1NC(=O)c1cc(Cl)ccc1Nc1ccccc1`, the IC50 in the experiment with Entamoeba histolytica and in the experiment with Toxoplasma gondii was above 30 µM each time.

Consider `CCOc1ccc2nc(C)cc(Nc3ccc(Br)cc3)c2c1`, for which the IC50 in the experiment with Entamoeba histolytica and in the experiment on Toxoplasma gondii was above 30 µM each time.

`COc1cc2c3cc1Oc1c(OC)c(OC)cc4c1C(Cc1ccc(O)c(c1)Oc1ccc(cc1)CC3N(C)CC2)N(C)CC4` (stereo not given): the IC50 in the experiment on Entamoeba histolytica and in the experiment with Toxoplasma gondii was above 30 µM each time.

For `CCCCCCc1cc2cc(-c3nc4ccccc4[nH]3)c(=Nc3ccccc3C)oc2cc1O`, the IC50 is above 30 µM in the experiment on Entamoeba histolytica and 6.28 µM in the experiment with Toxoplasma gondii.

With `CCCCCCC(O)(c1ccc(F)cc1)C(CN1CCOCC1)c1ccccc1` (stereo not given), the IC50 in the experiment with Entamoeba histolytica and with Toxoplasma gondii was above 30 µM each time.

For `COc1cc(OC)cc(N2C(=O)N(Cc3ccc(C(C)(C)C)cc3)c3ccccc3S2(=O)=O)c1`, the IC50 in the experiment on Entamoeba histolytica and with Toxoplasma gondii was above 30 µM each time.

On to `CCOc1c(Br)cc(C2C(C(=O)OC)=CN(C)C=C2C(=O)OC)cc1OC`, for which the IC50 in the experiment on Entamoeba histolytica and in the experiment with Toxoplasma gondii was above 30 µM in each case.

On to `COc1ccc2sc(N(Cc3cccnc3)C(=O)c3ccc(C#N)cc3)nc2c1`, for which the IC50 in the experiment with Entamoeba histolytica and in the experiment on Toxoplasma gondii was above 30 µM in each case.

For the compound `CC1CC2=C(CC1CNCCCN(C)C)C(C)(C)CCC2` (stereo not given), the IC50 in the experiment with Entamoeba histolytica and in the experiment with Toxoplasma gondii was above 30 µM in each case.

`CN(C)c1ccc(N=Cc2ccc(N3CCOCC3)cc2)cc1`: the IC50 in the experiment with Entamoeba histolytica and in the experiment on Toxoplasma gondii was above 30 µM each time.

For the compound `CCOC(=O)c1cnc2ccc(OC)cc2c1NCc1ccccc1`, the IC50 in the experiment with Entamoeba histolytica and in the experiment with Toxoplasma gondii was above 30 µM each time.

As for `CCOC(=O)C1=CN(C)C=C(C(=O)OCC)C1c1cc(Br)c(OCC)c(OC)c1`, the IC50 with Entamoeba histolytica and in the experiment on Toxoplasma gondii was above 30 µM throughout.

In the case of `CC(C)(C)c1ccc(C2CC3=Nc4ccccc4N(C(=O)c4ccccc4Cl)C(c4ccc(F)cc4)C3=C(O)C2)cc1` (stereo not given), the IC50 in the experiment with Entamoeba histolytica and with Toxoplasma gondii was above 30 µM each time.

Regarding `CN1CCN(c2nc(Nc3ccc(O)cc3)nc3ccccc23)CC1`, the IC50 with Entamoeba histolytica and with Toxoplasma gondii was above 30 µM each time.

With `CCOC(=O)c1c[nH]c2c(CC)cccc2c1=O`, the IC50 with Entamoeba histolytica and with Toxoplasma gondii was above 30 µM each time.

For `CCCCc1c(CCC)c(=N)c2ccccc2n1C`, the IC50 with Entamoeba histolytica and in the experiment on Toxoplasma gondii was above 30 µM each time.
